Experimental findings from PMC7321408, “One-Pot Multicomponent Synthesis and Bioevaluation of Tetrahydroquinoline Derivatives as Potential Antioxidants, α-Amylase Enzyme Inhibitors, Anti-Cancerous and Anti-Inflammatory Agents” (Molecules, 2020) are described below.

≈ marks a conversion by molar mass, not a printed value.

A short description of data set [1]: DPPH free radical scavenging assay. The conditions noted are these: mean ± SEM, n = 3; for IC50 (DPPH radical scavenging): concentration to scavenge 50% of the DPPH radicals. On the procedure:
The % free radical scavenging activity (%FRSA) of the synthetic compounds was evaluated by the discoloration of an unstable DPPH reagent to the stable yellow-colored 2,2-diphenyl-1-picrylhydrazine molecule by accepting one electron from a donor antioxidant; the mechanism is shown in Scheme 2.
The % FRSA (free radical scavenging activity) of the synthetic compounds was determined by using the method of Tai et al. with slight modifications. The antioxidant potential was determined by detecting the capacity of the synthetic compounds to quench the DPPH free radicals. The synthetic compounds were taken in a 96-well plate at three-fold concentrations of 200 µg/mL, 66.6 µg/mL, 22.2 µg/mL and 7.4 µg/mL. DPPH free radicals were added to entire wells to make up the volume up to 200 µL. DMSO and ascorbic acid were taken as negative and positive controls, respectively. The absorbance was taken at 630nm using a microplate reader (ELx800 BioTek). The percentage of scavenging activity was calculated by the given formula:% scavenging activity = (1 − Abs/Abc) × 100
Abs = sample’s absorbance; Abc = control’s absorbance.
(The DPPH test is a chemical assay of radical scavenging.)

Another data set relates to α-amylase enzyme. The data set is described as follows: α-Amylase enzyme inhibitory assay. It is filed as biochemical. The conditions noted are these: 200 µg/mL. On the procedure: An in vitro α-amylase enzyme inhibitory assay was performed by the standard protocol. Four milligrams per 1 mL of sample was prepared in DMSO. In each well of a 96-well plate, synthetic compounds were added to a final concentration of 200 µg/mL. To this, 15 μL phosphate buffer, […] α-amylase enzyme and 40 μL starch solution were added stepwise. The microplate was incubated at 50 °C for 30 min. […] The formula used to calculate the percent enzyme inhibition is:% Enzyme inhibition = [(As − An) ÷ (Ab − An] × 100
As = sample’s absorbance; An = negative’s absorbance; Ab = blank’s absorbance

A further data set has as its system brine shrimp nauplii. The data set is described as follows: Brine shrimp lethality bioassay. The note with it: 24 h, n = 3. The format is in vivo. On the procedure: Brine shrimp eggs were hatched in a shallow rectangular plastic dish and filled with artificial seawater, which was prepared with a commercial salt mixture. In a 96-well plate, 150 µL of artificial seawater was added and 10 nauplii were added into this. Test compounds (400, 200, 100 and 50 µg/mL) were added into each well and the final volume was made up by adding the artificial seawater. The well plate was left uncovered under a lamp. The number of surviving shrimps were counted and recorded after 24 h. The test was repeated in triplicate. […] The percentage mortality (%M) was also calculated by dividing the number of dead nauplii by the total number and then multiplied by 100.

Data set [2] can be described thus: MTT cytotoxicity against raw macrophages. The format is cell-based, albino rats. The conditions noted are these: albino, rat; for viability at 24 h, 1 µM / viability at 24 h, 10 µM / viability at 24 h, 50 µM / viability at 24 h, 100 µM: peritoneal macrophages (raw macrophages), raw macrophages, MTT, read-out: % Cell Viability; for IC50 at 24 h: primary peritoneal macrophages, mean ± SEM, n = 3. The method, then: The % cell viability of the synthetic library was evaluated in vitro by measuring the mitochondrial dehydrogenase activity (MTT test) on raw macrophages.
The cytotoxic potential was assessed by using an MTT 3-(4,5-dimethyl thiazole-2-yl)-2,5- diphenyl tetrazolium bromide assay. Briefly, macrophages were extracted from the peritoneal cavity of albino rats and plated at a density of 1 × 10^6 per well in a 96-well plate and incubated in a 5% CO2 incubator at 37 °C for 24 h. The cells were treated with various concentrations of the test compounds (100 µM, 50 µM, 10 µM and 1 µM) or vehicle alone. The test compounds were first dissolved in DMSO to make a 100 mM stock solution and then further dilutions were made from this stock solution. After 24 h of incubation, 20 µL of MTT (1 mg/mL in normal saline) was added into each well and incubated under the same conditions for 2 h. Mitochondrial succinate dehydrogenase converted MTT in live cells into purple formazan crystals. The formazan crystals were then solubilized in 100 µL DMSO, and the absorbance was measured at 570 nm. The % cell viability was calculated by the following formula; % cell viability = (abssample − absblank)/(abscontrol − absblank) × 100

Data set [3] deals with NO generated by LPS-induced macrophages. As to the kind of experiment: Nitric oxide assay (Griess) in LPS-induced macrophages. The format is cell-based, murine. The note with it: for activity at 1 µM / activity at 10 µM / activity at 50 µM / activity at 100 µM: 18 h, LPS 1 µg/mL, read-out: % NO Production (Mean ± SEM). The method, then: A Griess reagent, a spectrophotometric determination of nitrite level, was carried out to measure the nitrite level in the conditioned medium of macrophages treated with lipopolysaccharide (LPS). Sodium nitrite (NaNO2) was used as a standard compound for the standard curve (Figure 8). The NO concentrations were obtained using the standard curve equation: y = 0.0083x + 0.0017, R^2 = 0.9999, where y is the absorbance at 540 nm and x is the NO concentration in µM. The inhibitory activity of the tested compounds towards NO generated by LPS-induced macrophages was obtained from the calculated value of x.
The anti-inflammatory effect of the synthesized compounds in murine macrophages was evaluated by using the Griess reaction method, described previously. In brief, 1 × 10^6 were plated in a 96-well plate and incubated in a 5% CO2 incubator at 37 °C for 24 h, pre-treated with different concentrations (100 µM, 50 µM, 10 µM and 1 µM) of synthetic compounds for another 2 h and challenged with LPS (1 µg/mL) for an additional 18 h. Equal volumes of Griess reagent (1% sulphanilamide in 50% phosphoric acid and 0.1% naphthyl ethylenediamine dihydrochloride in distilled water and vortexed) and culture medium were mixed and the absorbance was taken at 540 nm. Lipopolysaccharide (LPS) was taken as a blank and piroxicam was taken as a positive control. A t-test was applied to determine the significance of the results.
(Griess reagent forms a coloured azo dye with nitrite.)

Data set [4] has as its system carrageenan-induced paw edema. As to the kind of experiment: Carrageenan-induced paw edema (in vivo anti-inflammatory activity). Details: species or system BALB/C albino mice; unit not given beside the values. The conditions noted are these: 10 mg/kg, mice, n = 5. On the procedure:
At 7–8 weeks old, male BALB/C albino mice (29–35 g), were purchased from The National Institute of Health (NIH), Islamabad, Pakistan. Five animals were housed per group and placed in a controlled temperature and humidity-controlled room (22 °C and 66 ± 5%, respectively) in a 12 h light–dark cycle and provided with water and food ad libitum. Ethical approval was taken from the bio-ethical committee of Quaid-I-Azam University (Approval No. BEC-FBS-QAU2018-119) and all protocols were conducted following the Ethical Guide to the Code of Practice for the Housing and Care of Animals Act 1986 (ARRIVE (Animal Research: Reporting In Vivo Experiments) guidelines). The anti-inflammatory activity of the synthesized compounds was evaluated by using the carrageenan-induced rat paw edema assay. To determine the dose response of tetrahydroquinoline derivatives, animals were first given a dose of 0.1, 1 and 10 mg/kg against 100 µL carrageenan (1% solution in normal saline)/paw. Treatment was given 60 min before carrageenan injection. Readings were taken at 4 h post carrageenan injection. The in vivo anti-inflammatory activity was performed following the procedure described by Koksal, et al. in 2017. Paw edema was induced by injecting 100 µL of 1% sterile carrageenan solution into the right hind paw of mice. Synthesized compounds (10 mg/kg), vehicle (saline with 2% DMSO) and drug (acetylsalicylic acid, ASA 10 mg/kg) were administered to the mice orally by gastric intubation 60 min before injecting carrageenan into the right hind paw. The decrease in edema was measured by vernier calipers every 2 h.
(Carrageenan injected into the paw causes an acute inflammation.)

Setting [5] is: Mus musculus, Macrophage, 50 µM.
The mark [6] stands for this setting: 0 h after carrageenan injection.
The mark [7] stands for this setting: 2 h after carrageenan injection.
[8] abbreviates: 4 h after carrageenan injection.
The mark [9] stands for this setting: 6 h after carrageenan injection.

The viability is a per cent measure of how many cells are alive, often set against a control. By IC50 is commonly meant the concentration needed to halve the response being measured. As to `c1ccc2c(c1)CCCN2CN1CCOCC1` [SF2, 4-((3,4-Dihydroquinolin—1(2H)-yl)methyl) morpholine], the “% DPPH Scavenging Activity” value in data set [1] (7.4 µg/mL) is recorded as 17.44 ± 0.26%; in data set [1] (22.22 µg/mL), 36.61 ± 0.22%; in data set [1] (66.66 µg/mL), 58.39 ± 0.27%; in data set [1] (200 µg/mL), 71.85 ± 0.27%. In addition, in data set [1], the “IC50 (DPPH radical scavenging)” value was 42.55 ± 0.36 µg/mL (≈ 183 µM). Moreover, the “% inhibition of α-amylase enzyme” value in the data set on α-amylase enzyme was determined as 79.97%. Besides, the “LD50 ± SEM (brine shrimp lethality)” value with brine shrimp nauplii was determined as 141.4 ± 2.1 µg/mL. For the same molecule, the viability at 24 h, 1 µM in data set [2] amounted to 76 ± 0.46%. In addition, the viability at 24 h, 10 µM in data set [2] is 70 ± 0.91%. The viability at 24 h, 50 µM in data set [2] came to 60 ± 0.91%. Besides, in data set [2], the viability at 24 h, 100 µM was 50 ± 1.52%. Further, in data set [2], the IC50 at 24 h came to 26.8 ± 0.3 µM. In addition, the activity at 1 µM in data set [3] (Mus musculus, Macrophage, 1 µM) came to 32.2 ± 0.46%. In addition, in data set [3] (Mus musculus, Macrophage), the activity at 10 µM was determined as 27.1 ± 0.36%. Further, the activity at 50 µM in data set [3] (setting [5]) was determined as 22.1 ± 0.33%. In data set [3] (Mus musculus, Macrophage), the activity at 100 µM amounted to 15.3 ± 0.29%. Moreover, the Paw thickness in data set [4] (setting [6]) was 2.05 ± 0.05; in data set [4] (setting [7]), 2.11 ± 0.06; in data set [4] (setting [8]) it was 2.17 ± 0.03; in data set [4] (setting [9]), 2.23 ± 0.07.
`c1ccc2c(c1)CCCN2CN1CCCC1` [SF3, 1-(Pyrollidin-1-ylmethyl) -1,2,3,4-tetrahydroquinoline]: the “% DPPH Scavenging Activity” value came out at 3.76 ± 0.125% in data set [1] (7.4 µg/mL), 9.85 ± 0.18% in data set [1] (22.22 µg/mL), 18.32 ± 0.91% in data set [1] (66.66 µg/mL) and 27.19 ± 0.31% in data set [1] (200 µg/mL). Also, in data set [1], the “IC50 (DPPH radical scavenging)” value was found to be 52.75 ± 0.28 µg/mL (≈ 244 µM). Moreover, in the data set with brine shrimp nauplii, the “LD50 ± SEM (brine shrimp lethality)” value is listed as 102 ± 1.98 µg/mL. Further, in data set [2], the viability at 24 h, 1 µM was 83 ± 0.63%. Further, the viability at 24 h, 10 µM in data set [2] came to 78 ± 0.74%. For the same molecule, in data set [2], the viability at 24 h, 50 µM was 72 ± 1.34%. Further, in data set [2], the viability at 24 h, 100 µM amounted to 41 ± 1.07%. In data set [2], this molecule returned a half-inhibitory concentration (IC50) at 24 h of 29.1 ± 0.5 µM. The activity at 1 µM in data set [3] (Mus musculus, Macrophage, 1 µM) was 33.2 ± 0.47%. In addition, the activity at 10 µM in data set [3] (Mus musculus, Macrophage) was determined as 29.6 ± 0.42%. In data set [3] (setting [5]), the activity at 50 µM is 23.8 ± 0.39%. Further, in data set [3] (Mus musculus, Macrophage), the activity at 100 µM came to 19.7 ± 0.37%. Also, the Paw thickness in data set [4] (setting [6]) is 2.05 ± 0.06; in data set [4] (setting [7]) it was 2.16 ± 0.05; in data set [4] (setting [8]), 2.22 ± 0.02; in data set [4] (setting [9]) it was 2.28 ± 0.07.
The inhibition is how much of the control response was suppressed. Turning to `CC(=O)N(CN1CCCc2ccccc21)c1ccc(O)cc1` [SF13, N-((3,4-dihydroquinolin-1(2H)-yl)methyl)-N-(4-hydroxyphenyl) acetamide], the “% DPPH Scavenging Activity” value is 1.98 ± 0.20% in data set [1] (7.4 µg/mL), 4.44 ± 0.18% in data set [1] (22.22 µg/mL), 11.78 ± 0.15 s % in data set [1] (66.66 µg/mL) and 19.34 ± 0.34% in data set [1] (200 µg/mL). Also, the “% inhibition of α-amylase enzyme” value in the data set on α-amylase enzyme amounted to 10.51%. In addition, the “LD50 ± SEM (brine shrimp lethality)” value in the data set with brine shrimp nauplii amounted to 204 ± 1.67 µg/mL. For the same molecule, the viability at 24 h, 1 µM in data set [2] was 85 ± 0.93%. Besides, the viability at 24 h, 10 µM in data set [2] amounted to 82 ± 0.66%. Further, the viability at 24 h, 50 µM in data set [2] is 73 ± 1.01%. Also, the viability at 24 h, 100 µM in data set [2] was found to be 60 ± 1.24%. This molecule also yielded an IC50 at 24 h in data set [2] of 41.4 ± 0.69 µM. Further, the “NO level scavenged (maximum)” value in data set [3] (50 µM) was 85%. Further, in data set [3] (Mus musculus, Macrophage, 1 µM), the activity at 1 µM stood at 25.1 ± 0.59%. Further, in data set [3] (Mus musculus, Macrophage), the activity at 10 µM is 22.2 ± 0.52%. Further, in data set [3] (setting [5]), the activity at 50 µM came out at 15.6 ± 0.47%. For the same molecule, the activity at 100 µM in data set [3] (Mus musculus, Macrophage) amounted to 14.5 ± 0.44%. Further, in data set [3] (Mus musculus, Macrophage, 1 µM, read-out: NO maximum inhibition), the inhibition at 1 µM stood at 75%. For the same molecule, the Paw thickness in data set [4] (setting [6]) came to 2.04 ± 0.07; in data set [4] (setting [7]) it was 2.18 ± 0.03; in data set [4] (setting [8]) it was 2.26 ± 0.06; in data set [4] (setting [9]), 2.31 ± 0.07.
